From patent US11702422B2, “Imidazopyridazines as modulators of IL-17” (Janssen Pharmaceutica NV, priority 2020, dated 2023) come the findings set out here.

The test system of experiment [1] is IL-17A-induced G-CSF production in human normal keratinocyte (NHK). In words: NHK Assay: IL-17A-induced G-CSF production in human normal keratinocytes. Particulars: 24 h, adult normal human keratinocytes, IL-17A 5 ng/mL, simple average if tested more than once. The class given is cell-based. Summed up:
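G-CSF released by primary adult human keratinocytes after 24 h at 37° C was quantified by HTRF via standard curve to give IC50. Stimulus was 5 ng/mL IL-17A pre-mixed 1 h at rt with compound dilutions, in 5% FBS and 0.2% DMSO. Cell viability was assessed in parallel with CellTiter-Glo.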

In experiment [2] the target is IL-17A(FLAG-Tagged): IL-17RA(His-Tagged) (Homo sapiens, UniProt Q16552, K93Q). Description: IL-17A(FLAG-Tagged): IL-17RA(His-Tagged) Binding Disruption Eu-HTRF Assay. Particulars: IL-17A/IL-17RA binding disruption, simple average if tested more than once. The gist of the method: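 IC50 comes from a one-site competition fit of the HTRF 665/620 nm ratio. Compound dilutions (2-fold, 22 points) were held 1 h rt with FLAG-tagged IL-17A dimer, then His-tagged IL-17RA plus Eu-cryptate anti-FLAG and D2 anti-His antibodies were added for 2 h rt.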
On the technique in general: In TR-FRET formats the signal depends on donor and acceptor labels being close together.

UniProt Q16552, sequence (Q16552 with tags, fused parts or gaps K93Q): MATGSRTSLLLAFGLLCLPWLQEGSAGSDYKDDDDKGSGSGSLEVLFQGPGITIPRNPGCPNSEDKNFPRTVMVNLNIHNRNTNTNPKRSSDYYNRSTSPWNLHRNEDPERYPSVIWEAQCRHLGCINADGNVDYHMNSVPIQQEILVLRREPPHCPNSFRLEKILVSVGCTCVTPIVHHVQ

Usually IC50 stands for the concentration needed to halve the response being measured. Higher therefore signals weaker potency. On to `[2H]C([2H])([2H])n1nccc1C(=O)N[C@H](c1cn2ncc(C(NC(=O)CC3CC(F)(F)C3)C3CCC3)cc2n1)C1CCC(F)(F)CC1` (single isomer, unassigned) [Example 497, N—((S)-(7-((R*)-Cyclobutyl(2-(3,3-difluorocyclobutyl)acetamido)methyl)imidazo[1,2-b]pyridazin-2-yl)(4,4-difluorocyclohexyl)methyl)-1-(methyl-d3)-1H-pyrazole-5-carboxamide], for which the IC50 in experiment [1] (Homo sapiens, Keratinocyte) came to 150 nM; in experiment [2] it was 91 nM.

Turning to `CC(C)(O)c1nonc1C(=O)N[C@H](c1cn2ncc(C(NC(=O)CC3CC(F)(F)C3)C3CCC3)cc2n1)C1CCC(F)(F)CC1` (single isomer, unassigned) [Example 499, N—((S)-(7-((R*)-Cyclobutyl(2-(3,3-difluorocyclobutyl)acetamido)methyl)imidazo[1,2-b]pyridazin-2-yl)(4,4-difluorocyclohexyl)methyl)-4-(2-hydroxypropan-2-yl)-1,2,5-oxadiazole-3-carboxamide], the IC50 was found to be 160 nM in experiment [1] (Homo sapiens, Keratinocyte) and 180 nM in experiment [2].

On to `Cc1nonc1C(=O)N[C@H](c1cn2ncc(C(NC(=O)CCC(F)(F)F)C(C)C)cc2n1)C1CCC(F)(F)CC1` (single isomer, unassigned) [Example 504, N—((S)-(4,4-Difluorocyclohexyl)(7-((S*)-2-methyl-1-(4,4,4-trifluorobutanamido)propyl)imidazo[1,2-b]pyridazin-2-yl)methyl)-4-methyl-1,2,5-oxadiazole-3-carboxamide], for which the IC50 amounted to 93 nM in experiment [1] and 46 nM in experiment [2].

Regarding `Cc1nonc1C(=O)N[C@H](c1cn2ncc(C(C)NC(=O)CCC(F)(F)F)cc2n1)C1CCC(F)(F)CC1` (single isomer, unassigned) [Example 505, N—((S)-(4,4-Difluorocyclohexyl)(7-((R*)-1-(4,4,4-trifluorobutanamido)ethyl)imidazo[1,2-b]pyridazin-2-yl)methyl)-4-methyl-1,2,5-oxadiazole-3-carboxamide], the results for the 50% inhibitory concentration (IC50) in experiment [1] and in experiment [2] were above 20000 nM and 5400 nM, respectively.

As for `[2H]C([2H])([2H])C([2H])([2H])n1nccc1C(=O)N[C@H](c1cn2ncc(C(CC)NC(=O)CC3CC(F)(F)C3)cc2n1)C1CCC(F)(F)CC1` (single isomer, unassigned) [Example 506, N—((S)-(7-((R*)-1-(2-(3,3-Difluorocyclobutyl)acetamido)propyl)imidazo[1,2-b]pyridazin-2-yl)(4,4-difluorocyclohexyl)methyl)-1-(ethyl-d5)-1H-pyrazole-5-carboxamide], the IC50 came to 130 nM in experiment [1] (Homo sapiens, Keratinocyte) and 200 nM in experiment [2].

Consider `CCC(NC(=O)CC1CC(F)(F)C1)c1cnn2cc([C@@H](NC(=O)c3nonc3C3CC3)C3CCC(F)(F)CC3)nc2c1` (single isomer, unassigned) [Example 507, 4-Cyclopropyl-N—((S)-(7-((R*)-1-(2-(3,3-difluorocyclobutyl)acetamido)propyl)imidazo[1,2-b]pyridazin-2-yl)(4,4-difluorocyclohexyl)methyl)-1,2,5-oxadiazole-3-carboxamide], for which the half-inhibitory concentration (IC50) amounted to 42 nM in experiment [1] (Homo sapiens, Keratinocyte) and 56 nM in experiment [2].

As for `CCC(NC(=O)CC1CC(F)(F)C1)c1cnn2cc([C@@H](NC(=O)c3nonc3C)C3CCC(F)(F)CC3)nc2c1` (single isomer, unassigned) [Example 509, N—((S)-(7-((S*)-1-(2-(3,3-Difluorocyclobutyl)acetamido)propyl)imidazo[1,2-b]pyridazin-2-yl)(4,4-difluorocyclohexyl)methyl)-4-methyl-1,2,5-oxadiazole-3-carboxamide], the IC50 is above 20000 nM in experiment [1] (Homo sapiens, Keratinocyte) and 1900 nM in experiment [2].

On to `Cc1nonc1C(=O)N[C@H](c1cn2ncc(C(C)NC(=O)CCC(F)(F)F)cc2n1)C1CCC(F)(F)CC1` (single isomer, unassigned) [Example 510, N—((S)-(4,4-Difluorocyclohexyl)(7-((S*)-1-(4,4,4-trifluorobutanamido)ethyl)imidazo[1,2-b]pyridazin-2-yl)methyl)-4-methyl-1,2,5-oxadiazole-3-carboxamide], for which the figures for the IC50 in experiment [1] and in experiment [2] were 440 nM and 83 nM, respectively.

Consider `CC(C)c1nonc1C(=O)N[C@H](c1cn2ncc(C(NC(=O)CCC(F)(F)F)C(C)C)cc2n1)C1CCC(F)(F)CC1` (single isomer, unassigned) [Example 511, N—((S)-(4,4-Difluorocyclohexyl)(7-((S*)-2-methyl-1-(4,4,4-trifluorobutanamido)propyl)imidazo[1,2-b]pyridazin-2-yl)methyl)-4-isopropyl-1,2,5-oxadiazole-3-carboxamide], for which the IC50 is 21 nM in experiment [1] (Homo sapiens, Keratinocyte) and 46 nM in experiment [2].

Take `CC(C)C(NC(=O)CC1CC(F)(F)C1)c1cnn2cc([C@@H](NC(=O)c3nonc3C3CC3)C3CCC(F)(F)CC3)nc2c1` (single isomer, unassigned) [Example 512, 4-Cyclopropyl-N—((S)-(7-((S*)-1-(2-(3,3-difluorocyclobutyl)acetamido)-2-methylpropyl)imidazo[1,2-b]pyridazin-2-yl)(4,4-difluorocyclohexyl)methyl)-1,2,5-oxadiazole-3-carboxamide]: the IC50 stood at 35 nM in experiment [1] (Homo sapiens, Keratinocyte) and 30 nM in experiment [2].

For `Cc1nonc1C(=O)N[C@H](c1cn2ncc(C(NC(=O)CC3CC(F)(F)C3)C(C)C)cc2n1)C1CCC(F)(F)CC1` (single isomer, unassigned) [Example 513, N—((S)-(7-((S*)-1-(2-(3,3-Difluorocyclobutyl)acetamido)-2-methylpropyl)imidazo[1,2-b]pyridazin-2-yl)(4,4-difluorocyclohexyl)methyl)-4-methyl-1,2,5-oxadiazole-3-carboxamide], the 50% inhibitory concentration (IC50) came to 150 nM in experiment [1] (Homo sapiens, Keratinocyte) and 74 nM in experiment [2].

As to `Cc1nonc1C(=O)N[C@H](c1cn2ncc(C(NC(=O)CCC(F)(F)F)C(F)F)cc2n1)C1CCC(F)(F)CC1` (single isomer, unassigned) [Example 516, N—((S)-(7-((R*)-2,2-Difluoro-1-(4,4,4-trifluorobutanamido)ethyl)imidazo[1,2-b]pyridazin-2-yl)(4,4-difluorocyclohexyl)methyl)-4-methyl-1,2,5-oxadiazole-3-carboxamide], the IC50 in experiment [1] is above 20000 nM; in experiment [2], 1900 nM.

Turning to `O=C(CC1CC(F)(F)C1)NC(c1cnn2cc([C@@H](NC(=O)c3nonc3C3CC3)C3CCC(F)(F)CC3)nc2c1)C(F)F` (single isomer, unassigned) [Example 517, 4-Cyclopropyl-N—((S)-(7-((S*)-1-(2-(3,3-difluorocyclobutyl)acetamido)-2,2-difluoroethyl)imidazo[1,2-b]pyridazin-2-yl)(4,4-difluorocyclohexyl)methyl)-1,2,5-oxadiazole-3-carboxamide], the figures for the IC50 in experiment [1] and in experiment [2] were 45 nM and 46 nM, respectively.

Regarding `CC(C)n1nccc1C(=O)N[C@H](c1cn2ncc(C(NC(=O)CC3CC(F)(F)C3)C(F)F)cc2n1)C1CCC(F)(F)CC1` (single isomer, unassigned) [Example 519, N—((S)-(7-((S*)-1-(2-(3,3-Difluorocyclobutyl)acetamido)-2,2-difluoroethyl)imidazo[1,2-b]pyridazin-2-yl)(4,4-difluorocyclohexyl)methyl)-1-isopropyl-1H-pyrazole-5-carboxamide], the half-maximal inhibitory concentration (IC50) came out at 53 nM in experiment [1] and 190 nM in experiment [2].
